Assays:
NK1 receptor [1] = biological target: T1, NK1 receptor (Meriones unguiculatus, UniProt Q5DUB1); conditions: administered systemically 30 minutes before [Sar9,Met(O2)11]-substance P; cited from earlier work
T1 construct: centrally NK1 receptor mediated foot-tapping response was examined in the gerbil; from tissue; host or cells: whole animal (gerbil), central NK1 receptors, i.c.v. agonist

cisplatin-induced emesis [2] = conditions: cisplatin 5 mg/kg i.p.
cisplatin-induced emesis [3] = test: Cisplatin-induced acute emesis in the ferret; assay type: in vivo; conditions: ferret
Description: Adult male albino Fitch ferrets (>1 kg weight) were individually housed with free access to food (SDS Diet "C", Special Diet Services Ltd, Essex, U.K.). Thirty minutes prior to the commencement of the studies, the ferrets were presented with 100 g of commercially available tinned cat food.

NK1 receptor [4] = biological target: T1, NK1 receptor; test: [Sar9,Met(O2)11]substance P-induced hind foot tapping in the gerbil; assay type: in vivo
Protocol: FIG. 3. […] The duration of foot tapping (sec) was recorded for 5 minutes immediately following recovery of the animals righting reflex.
Gerbils were anaesthetized with isoflurane, and an incision was made to expose the skull. […] Animals were placed individually into observation boxes, and duration of hind foot tapping was recorded for 5 minutes immediately following recovery of the animals' righting reflex.

[5] = The Compound 10 mg/kg or ondansetron 1 mg/kg i.p. three times a day

T1 sequence (Q5DUB1 whole entry): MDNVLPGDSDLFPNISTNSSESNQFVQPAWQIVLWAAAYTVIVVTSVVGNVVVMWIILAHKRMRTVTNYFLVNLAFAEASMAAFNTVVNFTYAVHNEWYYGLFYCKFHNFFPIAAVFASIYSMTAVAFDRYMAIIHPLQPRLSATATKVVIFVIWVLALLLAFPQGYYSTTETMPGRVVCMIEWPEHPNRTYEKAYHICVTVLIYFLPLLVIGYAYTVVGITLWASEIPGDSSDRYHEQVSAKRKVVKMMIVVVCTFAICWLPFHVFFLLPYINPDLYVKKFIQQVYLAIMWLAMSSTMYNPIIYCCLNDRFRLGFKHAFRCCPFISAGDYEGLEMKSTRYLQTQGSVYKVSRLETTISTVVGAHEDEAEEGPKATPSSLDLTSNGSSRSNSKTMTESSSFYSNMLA

Compound: COc1ccccc1CN[C@H]1CCCN[C@H]1c1ccccc1 [CP-99,994]
- inhibition of the foot-tapping response (NK1 receptor [1]): dose-dependentlyinhibit

Compound: Cc1nccn1CC1CCc2c(c3ccccc3n2C)C1=O (stereo not shown) [ondansetron]
- delayed emesis during the 3 days (3-72 hours) (cisplatin-induced emesis [2]; [5]): much lower activity
- retching and vomiting during the first 3 hours of the emetic response (acute) (cisplatin-induced emesis [2]; [5]): completely blocked
- effect during the start of the delayed response (Day 1, 3-24 hours) (cisplatin-induced emesis [2]; ondansetron 1 mg/kg i.p. tid): failed to show any effect

Compound: CN(C)CC(=O)OCC(NC(=O)C(C)(Cc1c[nH]c2ccccc12)NC(=O)OCc1cc2ccccc2o1)c1ccccc1 (stereo not shown) [Compound 2, Dimethylamino-acetic acid 2-[2-(benzofuran-2-ylmethoxycarbonylamino)-3-(1H-indol-3-yl)-2-methyl-propionylamino]-2-phenyl-ethyl ester]
- block of cisplatin-induced emesis (cisplatin-induced emesis [3]): inability
- block of the foot-tapping response, s.c. (NK1 receptor [4]; 1-100 mg/kg s.c.): failed to block
- MED, antagonism of foot-tapping response, i.c.v. (NK1 receptor [4]; i.c.v. administration): 10 μg/animal
